Structures can show the parent of a compound that is named as a salt.
Target: T1, wild-type human ALK (cytoplasmic domain, amino acids 1058-1620, N-terminal GST fusion) (Homo sapiens, UniProt Q9UM73)
T1 construct: The cytoplasmic domain (amino acids 1058-1620) of wild-type human ALK; GST (N); made in house; host or cells: SF9 insect cells
Assay: ALK Inhibition in Enzyme Assay (Lance TR-FRET kinase assay)
Format: biochemical
Method in brief: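 TR-FRET read-out (Eu-W1024 PT66 anti-phosphotyrosine plus streptavidin-allophycocyanin, 320 nm excitation) quantified biotinylated peptide phosphorylation by the purified kinase. Reaction ran 90 minutes at room temperature before quenching with 20 mM EDTA in Tris pH 7.5 buffer with NaCl, BSA and Tween-20.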

T1 sequence (Q9UM73 1058-1620): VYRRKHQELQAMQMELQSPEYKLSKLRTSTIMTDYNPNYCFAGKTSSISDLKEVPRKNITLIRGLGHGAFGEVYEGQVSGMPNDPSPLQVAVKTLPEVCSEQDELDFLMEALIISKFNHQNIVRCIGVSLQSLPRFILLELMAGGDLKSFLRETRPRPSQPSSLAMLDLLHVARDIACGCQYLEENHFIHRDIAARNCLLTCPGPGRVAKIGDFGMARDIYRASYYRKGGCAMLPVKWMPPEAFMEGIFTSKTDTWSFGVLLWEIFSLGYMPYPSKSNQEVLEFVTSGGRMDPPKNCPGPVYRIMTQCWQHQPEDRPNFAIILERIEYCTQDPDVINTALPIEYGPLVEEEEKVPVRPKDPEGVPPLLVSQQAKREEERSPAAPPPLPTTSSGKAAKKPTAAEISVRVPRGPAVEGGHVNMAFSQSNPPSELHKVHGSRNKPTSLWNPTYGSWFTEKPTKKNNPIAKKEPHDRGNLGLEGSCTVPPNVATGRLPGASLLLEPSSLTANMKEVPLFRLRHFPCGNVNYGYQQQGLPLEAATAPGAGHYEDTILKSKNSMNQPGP

IC50 [nM]	Compound
< 50	CC(C)NC(=O)[C@H]1CC[C@@H](n2/c(=N/C(=O)c3ccc(F)cc3)[nH]c3cnc(O)cc32)CC1 [Example 162, (E)-4-Fluoro-N-(6-hydroxy-1-(cis-4-(isopropylcarbamoyl)cyclohexyl)-1H-imidazo[4,5-c]pyridin-2(3H)-ylidene)benzamide]
< 50	CC(C)NC(=O)[C@H]1CC[C@@H](n2/c(=N/C(=O)c3ccc(F)cc3)[nH]c3cnc(NCCN4CCOCC4)cc32)CC1 [Example 163, (E)-4-Fluoro-N-(1-(cis-4-(isopropylcarbamoyl)cyclohexyl)-6-(2-morpholinoethylamino)-1H-imidazo[4,5-c]pyridin-2(3H)-ylidene)benzamide]
< 50	CC(C)NC(=O)[C@H]1CC[C@@H](n2/c(=N/C(=O)c3ccc(F)cc3)[nH]c3cnc(OCCn4cncn4)cc32)CC1 [Example 164, (E)-N-(6-(2-(1H-1,2,4-Triazol-1-yl)ethoxy)-1-(cis-4-(isopropylcarbamoyl)cyclohexyl)-1H-imidazo[4,5-c]pyridin-2(3H)-ylidene)-4-fluorobenzamide]
< 50	CC(C)NC(=O)[C@H]1CC[C@@H](n2/c(=N/C(=O)c3ccc(F)cc3)[nH]c3cnc(OCCCN4CCOCC4)cc32)CC1 [Example 165, (E)-4-Fluoro-N-(1-(cis-4-(isopropylcarbamoyl)cyclohexyl)-6-(3-morpholinopropoxy)-1H-imidazo[4,5-c]pyridin-2(3H)-ylidene)benzamide]
< 50	CC(C)NC(=O)[C@H]1CC[C@@H](n2/c(=N/C(=O)c3ccc(F)cc3)[nH]c3cc(F)c(OCCN4CCOCC4)cc32)CC1 [Example 166, (E)-4-Fluoro-N-(5-fluoro-1-(cis-4-(isopropylcarbamoyl)cyclohexyl)-6-(2-morpholinoethoxy)-1H-benzo[d]imidazol-2(3H)-ylidene)benzamide]
< 50	CC(C)NC(=O)[C@H]1CC[C@@H](n2/c(=N/C(=O)c3ccc(F)cc3)[nH]c3cnc(OC4CCN(CC(=O)OC(C)(C)C)CC4)cc32)CC1 [Example 167, tert-Butyl 2-(4-((E)-2-(4-fluorobenzoylimino)-1-(cis-4-(isopropylcarbamoyl)cyclohexyl)-2,3-dihydro-1H-imidazo[4,5-c]pyridin-6-yloxy)piperidin-1-yl)acetate]
< 50	CC(C)NC(=O)[C@H]1CC[C@@H](n2/c(=N/C(=O)c3ccc(F)cc3)[nH]c3cnc(OC4CCN(CC(=O)O)CC4)cc32)CC1 [Example 168, 2-(4-((E)-2-(4-Fluorobenzoylimino)-1-(cis-4-(isopropylcarbamoyl)cyclohexyl)-2,3-dihydro-1H-imidazo[4,5-c]pyridin-6-yloxy)piperidin-1-yl)acetic acid hydrochloride]
< 50	CC(C)NC(=O)[C@H]1CC[C@@H](n2/c(=N/C(=O)c3ccc(F)cc3)[nH]c3cnc(OC4CCN(C)CC4)cc32)CC1 [Example 169, (E)-4-Fluoro-N-(1-(cis-4-(isopropylcarbamoyl)cyclohexyl)-6-(1-methylpiperidin-4-yloxy)-1H-imidazo[4,5-c]pyridin-2(3H)-ylidene)benzamide]
< 50	CC(C)NC(=O)[C@H]1CC[C@@H](n2/c(=N/C(=O)c3ccc(F)cc3)[nH]c3ccc(CO)cc32)CC1 [Example 170, (E)-4-Fluoro-N-(6-(hydroxymethyl)-1-(cis-4-(isopropylcarbamoyl)cyclohexyl)-1H-benzo[d]imidazol-2(3H)-ylidene)benzamide]
< 50	CC(C)NC(=O)[C@H]1CC[C@@H](n2/c(=N/C(=O)c3ccc(F)cc3)[nH]c3ccc(CN4CCN(S(C)(=O)=O)CC4)cc32)CC1 [Example 172, (E)-4-Fluoro-N-(1-(cis-4-(isopropylcarbamoyl)cyclohexyl)-6-((4-(methylsulfonyl)piperazin-1-yl)methyl)-1H-benzo[d]imidazol-2(3H)-ylidene)benzamide]
< 50	CC(C)NC(=O)[C@H]1CC[C@@H](n2/c(=N/C(=O)c3ccc(F)cc3)[nH]c3ccc(CN4CCN(CCO)CC4)cc32)CC1 [Example 173, (E)-4-Fluoro-N-(6-((4-(2-hydroxyethyl)piperazin-1-yl)methyl)-1-(cis-4-(isopropylcarbamoyl)cyclohexyl)-1H-benzo[d]imidazol-2(3H)-ylidene)benzamide]
< 50	CC(C)NC(=O)[C@H]1CC[C@@H](n2/c(=N/C(=O)c3ccc(F)cc3)[nH]c3ccc(CN4CCCC(C(N)=O)C4)cc32)CC1 (stereo partly drawn) [Example 180, 1-(((E)-2-(4-Fluorobenzoylimino)-3-(cis-4-(isopropylcarbamoyl)-cyclohexyl)-2,3-dihydro-1H-benzo[d]imidazol-5-yl)methyl)piperidine-3-carboxamide]
< 50	CC(C)NC(=O)[C@H]1CC[C@@H](n2/c(=N/C(=O)c3ccc(F)cc3)[nH]c3ccc(CN4CCC(S(=O)(=O)O)CC4)cc32)CC1 [Example 181, 1-(((E)-2-(4-Fluorobenzoylimino)-3-(cis-4-(isopropylcarbamoyl)-cyclohexyl)-2,3-dihydro-1H-benzo[d]imidazol-5-yl)methyl)piperidine-4-sulfonic acid]
< 50	CC(C)NC(=O)[C@H]1CC[C@@H](n2/c(=N/C(=O)c3ccc(F)cc3)[nH]c3ccc(CN4CCC(C(=O)N5CCOCC5)CC4)cc32)CC1 [Example 182, (E)-4-Fluoro-N-(1-(cis-4-(isopropylcarbamoyl)cyclohexyl)-6-((4-(morpholine-4-carbonyl)piperidin-1-yl)methyl)-1H-benzo[d]imidazol-2(3H)-ylidene)benzamide]
< 50	CC(C)NC(=O)[C@H]1CC[C@@H](n2/c(=N/C(=O)c3ccc(F)cc3)[nH]c3ccc(CN4CCC(C)(O)CC4)cc32)CC1 [Example 183, (E)-4-Fluoro-N-(6-((4-hydroxy-4-methylpiperidin-1-yl)methyl)-1-(cis-4-(isopropylcarbamoyl)cyclohexyl)-1H-benzo[d]imidazol-2(3H)-ylidene)benzamide]
< 50	CC(C)NC(=O)[C@H]1CC[C@@H](n2/c(=N/C(=O)c3ccc(F)cc3)[nH]c3ccc(CN4CCN(CC(C)(C)O)CC4)cc32)CC1 [Example 185, (E)-4-Fluoro-N-(6-((4-(2-hydroxy-2-methylpropyl)piperazin-1-yl)methyl)-1-(cis-4-(isopropylcarbamoyl)cyclohexyl)-1H-benzo[d]imidazol-2(3H)-ylidene)benzamide]
< 50	CC(C)NC(=O)[C@H]1CC[C@@H](n2/c(=N/C(=O)c3ccc(F)cc3)[nH]c3ccc(CN4CCC(C(O)C(F)(F)F)CC4)cc32)CC1 (stereo partly drawn) [Example 186, (E)-4-Fluoro-N-(1-(cis-4-(isopropylcarbamoyl)-cyclohexyl)-6-((4-(2,2,2-trifluoro-1-hydroxyethyl)piperidin-1-yl)methyl)-1H-benzo[d]imidazol-2(3H)-ylidene)benzamide]
< 50	CC[N+](CC)(CC)Cc1ccc2[nH]/c(=N\C(=O)c3ccc(F)cc3)n([C@H]3CC[C@@H](C(=O)NC(C)C)CC3)c2c1 [Example 187, N,N-Diethyl-N-(((E)-2-(4-fluorobenzoylimino)-3-(cis-4-(isopropylcarbamoyl)cyclohexyl)-2,3-dihydro-1H-benzo[d]imidazol-5-yl)methyl)ethanaminium chloride]
< 50	CC(C)NC(=O)[C@H]1CC[C@@H](n2/c(=N/C(=O)c3ccc(F)cc3)[nH]c3ccc(CN4CCC(CNCC(F)(F)F)CC4)cc32)CC1 [Example 190, (E)-4-Fluoro-N-(1-(cis-4-(isopropylcarbamoyl)cyclohexyl)-6-((4-((2,2,2-trifluoroethylamino)methyl)piperidin-1-yl)methyl)-1H-benzo[d]imidazol-2(3H)-ylidene)benzamide]
< 50	CC(C)NC(=O)[C@H]1CC[C@@H](n2/c(=N/C(=O)c3ccc(F)cc3)[nH]c3ccc(CN4CCC(F)(F)CC4)cc32)CC1 [Example 191, (E)-N-(6-((4,4-Difluoropiperidin-1-yl)methyl)-1-(cis-4-(isopropylcarbamoyl)cyclohexyl)-1H-benzo[d]imidazol-2(3H)-ylidene)-4-fluorobenzamide]
< 50	COCc1ccc2[nH]/c(=N\C(=O)c3ccc(F)cc3)n([C@H]3CC[C@@H](C(=O)NC(C)C)CC3)c2c1 [Example 192, (E)-4-Fluoro-N-(1-(cis-4-(isopropylcarbamoyl)cyclohexyl)-6-(methoxymethyl)-1H-benzo[d]imidazol-2(3H)-ylidene)benzamide]
< 50	CC(C)NC(=O)[C@H]1CC[C@@H](n2/c(=N/C(=O)c3ccc(F)cc3)[nH]c3ccc(Cn4cnnc4)cc32)CC1 [Example 195, (E)-N-(6-((4H-1,2,4-Triazol-4-yl)methyl)-1-(cis-4-(isopropylcarbamoyl)cyclohexyl)-1H-benzo[d]imidazol-2(3H)-ylidene)-4-fluorobenzamide]
< 50	CC(C)NC(=O)[C@H]1CC[C@@H](n2/c(=N/C(=O)c3ccc(F)cc3)[nH]c3ccc(CN4CCC(F)(F)C4)cc32)CC1 [Example 196, (E)-N-(6-((3,3-Difluoropyrrolidin-1-yl)methyl)-1-(cis-4-(isopropylcarbamoyl)cyclohexyl)-1H-benzo[d]imidazol-2(3H)-ylidene)-4-fluorobenzamide]
< 50	CC(C)NC(=O)[C@H]1CC[C@@H](n2/c(=N/C(=O)c3ccc(F)cc3)[nH]c3ccc(Cn4cccn4)cc32)CC1 [Example 197, (E)-N-(6-((1H-Pyrazol-1-yl)methyl)-1-(cis-4-(isopropylcarbamoyl)cyclohexyl)-1H-benzo[d]imidazol-2(3H)-ylidene)-4-fluorobenzamide]
< 50	COCCOCc1ccc2[nH]/c(=N\C(=O)c3ccc(F)cc3)n([C@H]3CC[C@@H](C(=O)NC(C)C)CC3)c2c1 [Example 198, (E)-4-Fluoro-N-(1-(cis-4-(isopropylcarbamoyl)cyclohexyl)-6-((2-methoxyethoxy)methyl)-1H-benzo[d]imidazol-2(3H)-ylidene)benzamide]
